Reference: patent publication US11458138B2 (Novartis AG, priority 2017, dated 2022)

Key:
LATS1 = LATS1 (Homo sapiens (Human), UniProt O95835); assay: LATS1 biochemical assay (Table 1A, Compound Examples 1-290; method in the earlier part)
[1] = test system: YAP nuclear translocation in HaCaT cells; assay: YAP Translocation Assay (HaCaT Cells); format: cell-based, human; settings: Homo sapiens, 24 hours
Experimental: HaCaT cells were suspended at 0.4×10^6 cells/ml in DMEM+10% FBS with penicillin-streptomycin-glutamine. 50 μl of cells were dispensed into 384-well clear bottom assay plates (20,000 cells/well), and incubated overnight at 37° C. 100 nL test compound was transferred into the assay wells containing HaCaT cells using ECHO (Labcyte). After 24 hours incubation at 37° C., 7 μL of 32% PFA was dispensed into each well and incubated for 45 minutes at room temperature. Plates were washed 3 times with PBS, leaving 20 μL of PBS per well, then treated with 0.1% Triton and 1.5% BSA in PBS for 45 minutes at room temperature. Plates were washed for 5 times with PBS, leaving 20 μL of PBS per well. […] Plates were further washed 3 time with PBS, sealed and imaged on the high-content Opera imaging system (PerkinElmer).

LATS1, sequence (O95835 whole entry, looked up): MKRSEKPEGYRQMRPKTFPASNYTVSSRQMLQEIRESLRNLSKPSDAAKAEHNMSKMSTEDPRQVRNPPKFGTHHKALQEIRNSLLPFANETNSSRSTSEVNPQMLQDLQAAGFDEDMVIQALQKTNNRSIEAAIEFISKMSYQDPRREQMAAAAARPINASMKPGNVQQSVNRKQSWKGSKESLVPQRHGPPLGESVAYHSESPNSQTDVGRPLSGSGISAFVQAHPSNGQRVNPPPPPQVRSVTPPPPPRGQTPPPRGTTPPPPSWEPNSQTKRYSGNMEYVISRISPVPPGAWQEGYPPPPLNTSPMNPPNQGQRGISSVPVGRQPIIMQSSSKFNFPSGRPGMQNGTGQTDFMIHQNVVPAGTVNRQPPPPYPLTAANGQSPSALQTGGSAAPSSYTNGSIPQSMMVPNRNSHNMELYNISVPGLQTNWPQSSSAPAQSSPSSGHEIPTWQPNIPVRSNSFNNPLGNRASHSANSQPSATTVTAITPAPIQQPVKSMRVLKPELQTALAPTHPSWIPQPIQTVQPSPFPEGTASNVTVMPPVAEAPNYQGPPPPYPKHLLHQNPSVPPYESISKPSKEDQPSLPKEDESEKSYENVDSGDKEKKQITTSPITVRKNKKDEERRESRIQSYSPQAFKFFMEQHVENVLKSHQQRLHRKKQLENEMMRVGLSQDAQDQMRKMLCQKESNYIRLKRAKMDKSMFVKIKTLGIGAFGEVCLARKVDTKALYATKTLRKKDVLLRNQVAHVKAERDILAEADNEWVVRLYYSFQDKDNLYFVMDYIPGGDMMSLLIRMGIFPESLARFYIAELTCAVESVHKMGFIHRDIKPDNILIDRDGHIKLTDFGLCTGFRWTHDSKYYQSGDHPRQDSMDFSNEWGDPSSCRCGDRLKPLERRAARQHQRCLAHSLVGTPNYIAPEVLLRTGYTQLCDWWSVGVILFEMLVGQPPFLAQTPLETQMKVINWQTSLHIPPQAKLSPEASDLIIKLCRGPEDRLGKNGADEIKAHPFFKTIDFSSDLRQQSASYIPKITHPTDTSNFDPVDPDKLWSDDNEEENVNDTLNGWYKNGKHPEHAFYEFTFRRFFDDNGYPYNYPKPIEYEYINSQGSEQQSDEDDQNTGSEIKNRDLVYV
LATS1, sequence (Q7L9L4 whole entry partner, looked up): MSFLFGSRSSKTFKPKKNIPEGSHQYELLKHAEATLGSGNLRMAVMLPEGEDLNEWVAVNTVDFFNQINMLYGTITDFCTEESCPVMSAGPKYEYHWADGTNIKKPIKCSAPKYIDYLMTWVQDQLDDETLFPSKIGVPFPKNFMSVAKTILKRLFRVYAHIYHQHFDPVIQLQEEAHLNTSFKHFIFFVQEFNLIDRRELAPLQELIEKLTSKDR

In the case of Clc1cnccc1-c1nc(NCCCc2nnn[nH]2)c2ccncc2n1 [Example 132, 2-(3-chloropyridin-4-yl)-N-[3-(1H-1,2,3,4-tetrazol-5-yl)propyl]pyrido[3,4-d]pyrimidin-4-amine], the IC50 (LATS1) is reported as > 2500 nM and the EC50 [1] is reported as > 20000 nM.
For CC(C)S(=O)(=O)Nc1nc(-c2ccncc2)nc2cnccc12 [Example 45, N-[2-(pyridin-4-yl)pyrido[3,4-d]pyrimidin-4-yl]propane-2-sulfonamide], the IC50 (LATS1) was > 2500 nM and the EC50 [1] was > 20000 nM.
In the case of CCCNc1nc(-c2cn(C)c3ncccc23)nc2cnccc12 [Example 165, 2-{1-methyl-1H-pyrrolo[2,3-b]pyridin-3-yl}-N-propylpyrido[3,4-d]pyrimidin-4-amine], the IC50 (LATS1) is reported as > 2500 nM and the EC50 [1] is reported as > 20000 nM.
CCCNc1nc(-c2ccncc2Cl)nc2cnccc12 [Example 162, 2-(3-chloropyridin-4-yl)-N-propylpyrido[3,4-d]pyrimidin-4-amine] was tested, and the IC50 (LATS1) was 49 nM and the EC50 [1] was > 20000 nM.
CC(C)(CS(C)(=O)=O)Nc1nc(-c2ccncc2)nc2cnccc12 [Example 28, N-(1-methanesulfonyl-2-methylpropan-2-yl)-2-(pyridin-4-yl)pyrido[3,4-d]pyrimidin-4-amine] was tested, and the IC50 (LATS1) was 36 nM and the EC50 [1] was > 20000 nM.
In the case of CCN(CC)c1cc(-c2ccncc2Cl)nc2cnccc12 [Example 286, 2-(3-chloropyridin-4-yl)-N,N-diethyl-1,7-naphthyridin-4-amine], the IC50 (LATS1) is reported as 560 nM and the EC50 [1] is reported as > 20000 nM.
With Fc1ccc(Nc2nc(-c3ccncc3)nc3cnccc23)cc1 [Example 96, N-(4-fluorophenyl)-2-(pyridin-4-yl)pyrido[3,4-d]pyrimidin-4-amine] the IC50 (LATS1) was > 1700 nM and the EC50 [1] was > 20000 nM.
Work on CC1(Nc2nc(-c3ccncc3)nc3cnccc23)CCC1 [Example 60, N-(1-methylcyclobutyl)-2-(pyridin-4-yl)pyrido[3,4-d]pyrimidin-4-amine] yielded an IC50 (LATS1) of 1 nM and an EC50 [1] of 440 nM.
For CCN(CC)c1cc(-c2ccncc2)nc2cnccc12 [Example 266, N,N-diethyl-2-(pyridin-4-yl)-1,7-naphthyridin-4-amine], the IC50 (LATS1) was 9 nM and the EC50 [1] was 5350 nM.
Cc1n[nH]cc1-c1nc(NC2(CO)CCC2)c2ccncc2n1 [Example 185, (1-{[2-(3-methyl-1H-pyrazol-4-yl)pyrido[3,4-d]pyrimidin-4-yl]amino}cyclobutyl)methanol] showed an IC50 (LATS1) of 9 nM and an EC50 [1] of 11500 nM.
In the case of CC(C)(O)CC(C)(C)Nc1nc(-c2ccncc2Cl)nc2cnccc12 [Example 125, 4-{[2-(3-chloropyridin-4-yl)pyrido[3,4-d]pyrimidin-4-yl]amino}-2,4-dimethylpentan-2-ol], the IC50 (LATS1) is reported as 23 nM and the EC50 [1] is reported as 8000 nM.
Work on CC(C)(O)CC(C)(C)Nc1nc(-c2cn[nH]c2)nc2cnccc12 [Example 166, 2,4-dimethyl-4-{[2-(1H-pyrazol-4-yl)pyrido[3,4-d]pyrimidin-4-yl]amino}pentan-2-ol] yielded an IC50 (LATS1) of 14 nM and an EC50 [1] of 8450 nM.
In the case of CN(C)C1(CNc2nc(-c3ccncc3)nc3cnccc23)CCOCC1 [Example 39, N-{[4-(dimethylamino)oxan-4-yl]methyl}-2-(pyridin-4-yl)pyrido[3,4-d]pyrimidin-4-amine], the IC50 (LATS1) is reported as 244 nM and the EC50 [1] is reported as > 11600 nM.
For OCCOCCNc1nc(-c2ccncc2)nc2cnccc12 [Example 35, 2-(2-{[2-(pyridin-4-yl)pyrido[3,4-d]pyrimidin-4-yl]amino}ethoxy)ethan-1-ol], the IC50 (LATS1) was 118 nM and the EC50 [1] was > 20000 nM.
With C[C@@](Nc1nc(-c2ccncc2)nc2cnccc12)(C(=O)O)C(F)(F)F [Example 31, (2R)-3,3,3-trifluoro-2-methyl-2-{[2-(pyridin-4-yl)pyrido[3,4-d]pyrimidin-4-yl]amino}propanoic acid] the IC50 (LATS1) was 41 nM and the EC50 [1] was > 20000 nM.
c1ccc(Nc2nc(-c3ccncc3)nc3cnccc23)cc1 [Example 92, N-phenyl-2-(pyridin-4-yl)pyrido[3,4-d]pyrimidin-4-amine] was tested, and the IC50 (LATS1) was 304 nM and the EC50 [1] was > 20000 nM.
For Fc1cnccc1-c1cc(N2CCCCC2)c2ccncc2n1 [Example 278, 2-(3-fluoropyridin-4-yl)-4-(piperidin-1-yl)-1,7-naphthyridine], the IC50 (LATS1) was 90 nM and the EC50 [1] was > 20000 nM.
Molecule CC(C)(O)CC(C)(C)Nc1nc(-c2c[nH]nc2C(F)(F)F)nc2cnccc12 [Example 119, 2,4-dimethyl-4-({2-[3-(trifluoromethyl)-1H-pyrazol-4-yl]pyrido[3,4-d]pyrimidin-4-yl}amino)pentan-2-ol] has an IC50 (LATS1) of 9 nM and an EC50 [1] of 5180 nM.
In the case of CC(C)(CCS(C)(=O)=O)Nc1nc(-c2ccncc2Cl)nc2cnccc12 [Example 129, 2-(3-chloropyridin-4-yl)-N-(4-methanesulfonyl-2-methylbutan-2-yl)pyrido[3,4-d]pyrimidin-4-amine], the IC50 (LATS1) is reported as 187 nM and the EC50 [1] is reported as > 20000 nM.
CCn1nccc1-c1nc(NC2(C)CC2)c2ccncc2n1 [Example 173, 2-(1-ethyl-1H-pyrazol-5-yl)-N-(1-methylcyclopropyl)pyrido[3,4-d]pyrimidin-4-amine] was tested, and the IC50 (LATS1) was 61 nM and the EC50 [1] was > 20000 nM.
For O=C(O)C1CC(Nc2nc(-c3ccncc3)nc3cnccc23)C1 (stereo not shown) [Example 57, (1s,3s)-3-{[2-(pyridin-4-yl)pyrido[3,4-d]pyrimidin-4-yl]amino}cyclobutane-1-carboxylic acid], the IC50 (LATS1) was 1440 nM and the EC50 [1] was > 20000 nM.
With CCCNc1nc(-c2c[nH]nc2C2CC2)nc2cnccc12 [Example 163, 2-(3-cyclopropyl-1H-pyrazol-4-yl)-N-propylpyrido[3,4-d]pyrimidin-4-amine] the IC50 (LATS1) was 51 nM and the EC50 [1] was > 20000 nM.
CN(c1nc(-c2cn[nH]c2)nc2cnccc12)C1(C)CC1 [Example 171, N-methyl-N-(1-methylcyclopropyl)-2-(1H-pyrazol-4-yl)pyrido[3,4-d]pyrimidin-4-amine] was tested, and the IC50 (LATS1) was 54 nM and the EC50 [1] was 17200 nM.
In the case of Cc1c(-c2nc(NC(C)(C)C)c3ccncc3n2)c2cccnc2n1S(=O)(=O)c1ccccc1 [Example 113, 2-[1-(benzenesulfonyl)-2-methyl-1H-pyrrolo[2,3-b]pyridin-3-yl]-N-tert-butylpyrido[3,4-d]pyrimidin-4-amine], the IC50 (LATS1) is reported as 235 nM and the EC50 [1] is reported as > 20000 nM.
With Cc1cc(-c2nc(NC3(C)CC3)c3ccncc3n2)on1 [Example 181, 2-(3-methyl-1,2-oxazol-5-yl)-N-(1-methylcyclopropyl)pyrido[3,4-d]pyrimidin-4-amine] the IC50 (LATS1) was 9000 nM and the EC50 [1] was > 10000 nM.
In the case of CC(C)(C)Nc1nc(-c2ccncc2C(F)(F)F)nc2cnccc12 [Example 130, N-tert-butyl-2-[3-(trifluoromethyl)pyridin-4-yl]pyrido[3,4-d]pyrimidin-4-amine], the IC50 (LATS1) is reported as 1150 nM and the EC50 [1] is reported as > 20000 nM.
CC1(Nc2nc(-c3nn[nH]n3)nc3cnccc23)CC1 [Example 182, N-(1-methylcyclopropyl)-2-(2H-1,2,3,4-tetrazol-5-yl)pyrido[3,4-d]pyrimidin-4-amine] was tested, and the IC50 (LATS1) was > 10000 nM and the EC50 [1] was > 20000 nM.
In the case of CC(Nc1nc(-c2cn[nH]c2)nc2cnccc12)c1ccncc1 (stereo not shown) [Example 183, 2-(1H-pyrazol-4-yl)-N-[1-(pyridin-4-yl)ethyl]pyrido[3,4-d]pyrimidin-4-amine], the IC50 (LATS1) is reported as 797 nM and the EC50 [1] is reported as > 20000 nM.
In the case of CC1(Nc2nc(-c3cnoc3)nc3cnccc23)CC1 [Example 152, N-(1-methylcyclopropyl)-2-(1,2-oxazol-4-yl)pyrido[3,4-d]pyrimidin-4-amine], the IC50 (LATS1) is reported as > 2500 nM and the EC50 [1] is reported as > 20000 nM.
